The results in this text go back to patent publication US20100184759A1, “PYRANO-PYRAZOLE-AMINES” (priority 2007, published 2010).

The structures appear in SMILES notation.

In one series the target is T1, σ1-receptor (Cavia porcellus, UniProt Q60492).
T1 construct: the σ1-receptor preparation was prepared from guinea pig brain; from tissue; host or cells: guinea pig brain membrane homogenate
Kind of series: Sigma 1 (Version B) receptor binding, [3H]-(+)-pentazocine, guinea pig brain preparation. To be noted: radioligand [3H]-(+)-pentazocine 2 nM. The method, then:
In brief the σ1-receptor preparation was prepared from guinea pig brain. The brains were homogenized in 5 to 6 times of volume sucrose solution (0.32M) and homogenized. The homogenate was centrifuged at 2900 rpm, 4° C., 10 min). the supernatant was centrifuged again (23500×g, 4° C., 20 min). The pellet was resuspended in Tris-buffer, incubated for 30 min at room temperature and centrifuged f (23500×g, 4° C., 20 min). The pellet was resuspended in cold TRIS-buffer and homogenized. Then the protein content was measured (approx. 1.5 mg/mL) and the homogenate frozen at −80° C. for later use.
The radioligand used was [^3H]-(+)-Pentazocin in TRIS-buffer. In a volume of 200 μL 50 μL TRIS-buffer, 50 μL compound solution of varying concentration, 50 μL radioligand-solution (8 nM; resulting in 2 nM in the assay) and finally 50 μL of receptor preparation (approx. 1.5 mg/mL) were given into a well of a microplate equipped with a filter. The plate was closed and stirred for 2.5 h at 37° C. and 500 rpm. Following that the solvents were removed by a harvester through the filter. After rinsing with H2O the filter was measured in a scintillation counter ([^3H]-protocol).

The target in the next series is T2, σ2-receptor (Rattus norvegicus, UniProt Q5U3Y7).
T2 construct: the σ2-Receptorpreparation was prepared from rat liver; from tissue; host or cells: rat liver membrane homogenate
T2 sequence (Q5U3Y7 1-176): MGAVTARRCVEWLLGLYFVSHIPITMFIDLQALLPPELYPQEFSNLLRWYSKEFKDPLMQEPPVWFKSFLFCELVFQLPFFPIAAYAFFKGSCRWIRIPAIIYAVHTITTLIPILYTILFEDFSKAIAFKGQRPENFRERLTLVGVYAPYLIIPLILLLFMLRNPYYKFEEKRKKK
Kind of series: Sigma 2 (Version B) receptor binding, [3H]-ditolylguanidine, rat liver preparation. Conditions: for Ki: radioligand [3H]-ditolylguanidine 3 nM, σ1 sites masked with (+)-pentazocine; for inhibition at 1 µM: compound at 1 μM, value in square brackets. The method, then:
In brief the σ2-Receptorpreparation was prepared from rat liver. The livers were homogenized in 5 to 6 times of volume sucrose solution (0.32M) and homogenized. The homogenate was centrifuged at 2900 rpm, 4° C., 10 min). the supernatant was centrifuged again (31000×g, 4° C., 20 min). The pellet was resuspended in TRIS-buffer, incubated for 30 min at room temperature while stirring and centrifuged f (31000×g, 4° C., 20 min). The pellet was resuspended in cold TRIS-buffer pH 8 and homogenized. Then the protein content was measured (approx. 2 mg/mL) and the homogenate frozen at −80° C. for later use.
The radioligand used was [^3H]-Ditolylguanidin in TRIS-buffer pH 8. The σ1-receptor binding sites were masked through (+)-Pentazocin-solution in TRIS-Puffer pH 8.
In a volume of 200 μL 50 μL compound solution of varying concentration, 50 μL (+)-Pentazocin-solution (2 nM; resulting in 500 nM in the assay), 50 μL radioligand-solution (12 nM; resulting in 3 nM in the assay) and finally 50 μL of receptor preparation (approx. 2 mg/mL) were given into a well of a microplate equipped with a filter. The plate was closed and stirred for 2 h at room temperature and 500 rpm. Following that the solvents were removed by a harvester through the filter. After rinsing with H2O the filter was measured in a scintillation counter ([^3H]-protocol).

T1 sequence (Q60492 whole entry): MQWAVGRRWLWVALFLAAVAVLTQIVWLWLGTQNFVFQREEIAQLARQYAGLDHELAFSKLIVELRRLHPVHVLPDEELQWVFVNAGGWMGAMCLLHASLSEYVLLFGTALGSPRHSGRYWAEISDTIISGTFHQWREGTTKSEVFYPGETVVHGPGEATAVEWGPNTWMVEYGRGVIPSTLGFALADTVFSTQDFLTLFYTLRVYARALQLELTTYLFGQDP

`c1ccc(N2CCN(CCC3OCCc4c3cnn4-c3ccccc3)CC2)cc1` (stereo not shown) [Example 11, 1-Phenyl-4-[2-(4-phenyl-piperazin-1-yl)-ethyl]-1,4,6,7-tetrahydro-pyrano[4,3-c]pyrazole]: the Ki (commonly a measure of affinity in units of concentration, obtained from inhibition or displacement) on σ1-receptor is 2.94 ± 0.43 nM; at σ2-receptor, 431 nM.

In the case of `c1ccc(-n2ncc3c2CCOC3CCN2CCCCC2)cc1` (stereo not shown) [Example 8, 1-Phenyl-4-(2-piperidin-1-yl-ethyl)-1,4,6,7-tetrahydro-pyrano[4,3-c]pyrazole], the Ki at σ1-receptor worked out at 2.98 ± 0.72 nM; on σ2-receptor, 536 nM.

`c1ccc(C2CCN(CCC3OCCc4c3cnn4-c3ccccc3)CC2)cc1` (stereo not shown) [Example 9, 1-Phenyl-4-[2-(4-phenyl-piperidin-1-yl)-ethyl]-1,4,6,7-tetrahydro-pyrano[4,3-c]pyrazole]: the Ki was 0.988 ± 0.07 nM at σ1-receptor and 15.1 ± 2.98 nM on σ2-receptor.

With `c1ccc(-n2ncc3c2CCOC3CN2CCOCC2)cc1` (stereo not shown) [Example 3, 4-(Morpholin-4-ylmethyl)-1-phenyl-1,4,6,7-tetrahydro-pyrano[4,3-c]pyrazole], the melting point (as a rule, the temperature of the solid-liquid transition) is 115 °C. The compound further showed a Ki on σ1-receptor of 169 ± 39.6 nM. In addition, testing at 1 µM on σ2-receptor gave an inhibition of 5%.

Take `c1ccc(C2CCN(CC3OCCc4c3cnn4-c3ccccc3)CC2)cc1` (stereo not shown) [Example 2, 1-Phenyl-4-(4-phenylpiperidin-1-ylmethyl)-1,4,6,7-tetrahydropyrano[4,3-c]pyrazole]: the Ki at σ1-receptor came out at 1.6 ± 0.41 nM; at σ2-receptor, 8.3 ± 2.66 nM.

Take `CN(C)CCC1OCCc2c1cnn2-c1ccccc1` (stereo not shown) [Example 14, Dimethyl-[2-(1-phenyl-1,4,6,7-tetrahydro-pyrano[4,3-c]pyrazol-4-yl)-ethyl]-amine]: the Ki at σ1-receptor worked out at 24 ± 2 nM; on σ2-receptor it was 1280 nM.

Turning to `CN(C)CC1OCCc2c1cnn2-c1ccccc1` (stereo not shown) [Example 7, N,N-Dimethyl-1-(1-phenyl-1,4,6,7-tetrahydropyrano[4,3-c]pyrazole-4-yl)methanamine], the melting point was 103 °C. At σ1-receptor, this compound registered a Ki of 1380 nM. Testing at 1 µM at σ2-receptor gave an inhibition of 12%.

Turning to `CN1CCN(CC2OCCc3c2cnn3-c2ccccc2)CC1` (stereo not shown) [Example 5, 4-(4-Methylpiperazin-1-ylmethyl)-1-phenyl-1,4,6,7-tetrahydropyrano[4,3-c]pyrazole], the melting point came out at 66 °C. The Ki on σ1-receptor worked out at 219 ± 7.22 nM. On σ2-receptor, 1 µM produced 13% inhibition.

`c1ccc(N2CCN(CC3OCCc4c3cnn4-c3ccccc3)CC2)cc1` (stereo not shown) [Example 4, 1-Phenyl-4-(4-phenylpiperazin-1-ylmethyl)-1,4,6,7-tetrahydropyrano[4,3-c]pyrazole] returned a melting point of 151 °C. The Ki on σ1-receptor is 42.3 ± 3.32 nM. At σ2-receptor, this compound returned a Ki of 210 ± 54.2 nM.

On to `c1ccc(-n2ncc3c2CCOC3CN2CCCCC2)cc1` (stereo not shown) [Example 1, 1-Phenyl-4-(piperidin-1-ylmethyl)-1,4,6,7-tetrahydro-pyrano[4,3-c]pyrazole], for which the melting point was determined as 91 °C. This compound gave a Ki on σ1-receptor of 10.5 ± 1.16 nM. For the same compound, the Ki at σ2-receptor came to 453 nM.

As to `c1ccc(-n2ncc3c2CCOC3CN2CCCC2)cc1` (stereo not shown) [Example 6, 1-Phenyl-4-(pyrrolidin-1-ylmethyl)-1,4,6,7-tetrahydro-pyrano[4,3-c]pyrazole], the melting point worked out at 89 °C. This compound registered a Ki on σ1-receptor of 59.3 ± 11.2 nM. The compound also returned a Ki on σ2-receptor of 322 nM.
